Measured values: patent publication US20240150365A1 (Hotspot Therapeutics, Inc., priority 2022, published 2024)
pIC50: −log10 of the molar value. Read-outs that look alike come from different tables or passages of the source.

Legend:
MALT1 = biological target: T1, MALT1 (Homo sapiens, UniProt Q9UDY8); assay: MALT-1 Fluorogenic Peptide Cleavage Assay (MALT1 inhibition assay); type: biochemical; conditions: Avi-tagged FL MALT-1, Ac-LRSR-AMC peptide substrate, 30 min pre-incubation, 90 min reaction
T1 construct: Avi-tagged FL MALT-1 (Pharmaron, stored at −70° C.); Avi tag
T1 sequence (Q9UDY8 1-824): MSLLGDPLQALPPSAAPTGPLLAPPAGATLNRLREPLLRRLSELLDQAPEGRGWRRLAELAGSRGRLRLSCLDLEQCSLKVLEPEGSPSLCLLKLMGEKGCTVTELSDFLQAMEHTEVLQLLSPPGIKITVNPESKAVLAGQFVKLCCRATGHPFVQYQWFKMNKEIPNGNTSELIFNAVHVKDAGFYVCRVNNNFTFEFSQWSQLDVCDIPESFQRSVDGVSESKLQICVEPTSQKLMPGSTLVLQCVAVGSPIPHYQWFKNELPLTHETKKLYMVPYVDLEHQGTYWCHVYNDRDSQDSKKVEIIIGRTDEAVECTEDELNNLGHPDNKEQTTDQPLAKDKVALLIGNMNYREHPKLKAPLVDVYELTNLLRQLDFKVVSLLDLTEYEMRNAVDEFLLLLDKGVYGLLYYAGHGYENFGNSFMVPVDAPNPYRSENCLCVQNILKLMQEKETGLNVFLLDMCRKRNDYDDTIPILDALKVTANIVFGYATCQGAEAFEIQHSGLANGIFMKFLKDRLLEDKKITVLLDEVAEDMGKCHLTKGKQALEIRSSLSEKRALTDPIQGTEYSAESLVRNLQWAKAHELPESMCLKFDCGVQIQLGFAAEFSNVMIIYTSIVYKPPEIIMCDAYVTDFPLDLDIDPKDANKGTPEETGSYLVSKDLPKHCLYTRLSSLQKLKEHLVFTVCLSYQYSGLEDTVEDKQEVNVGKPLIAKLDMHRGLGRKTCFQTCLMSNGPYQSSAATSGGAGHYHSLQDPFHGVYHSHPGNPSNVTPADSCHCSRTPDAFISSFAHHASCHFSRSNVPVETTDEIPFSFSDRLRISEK
Procedure, shortened: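 Avi-tagged full-length MALT1 pre-incubated 30 min with compound (2% DMSO final), then cleavage of Ac-LRSR-AMC followed over 90 min at room temperature. AMC fluorescence read at 342/441 nm; % inhibition fitted to sigmoidal curves for IC50.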

NF-kB = NF-kB reporter assay in Jurkat cells stimulated with aCD3/aCD28/PMA; type: cell-based; conditions: Homo sapiens, Jurkat, read-out: NF-kB Reporter Assay IC50
Procedure, shortened: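 Jurkat cells (25,000/well, serum-free RPMI 1640) preincubated 1 hr at 37° C with serially diluted compound, then stimulated with aCD3/aCD28/PMA (final 5 μg/mL, 5 μg/mL, 0.03 μg/mL) for 4 hr. Reporter luminescence read with One-Glo; IC50 derived.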

[1] = Jurkat cells, 1 hr compound incubation, aCD3/aCD28/PMA stimulation 4 hr, One-Glo readout

Structure (SMILES): O=S(=O)(c1ccc(-n2cc(C(F)(F)F)cn2)nc1)N1CCn2ncc3cccc1c32 [Example I-294, 1-((6-(4-(trifluoromethyl)-1H-pyrazol-1-yl)pyridin-3-yl)sulfonyl)-2,3-dihydro-1H-pyrazolo[1,5,4-de]quinoxaline]
- pIC50 (MALT1): < 5.60
- pIC50 (NF-kB; [1]): 5.60 to 6.00

Structure (SMILES): COc1ccc2cnn(C)c2c1NS(=O)(=O)c1ccc(-n2cc(Cl)cn2)nc1 [Example I-13, 6-(4-Chloro-1H-Pyrazol-1-yl)-N-(6-Methoxy-1-Methyl-1H-Indazol-7-yl)Pyridine-3-Sulfonamide]
- pIC50 (MALT1): > 6.40
- pIC50 (NF-kB; [1]): > 6.40

Structure (SMILES): Cn1cncc1-c1ccc(S(=O)(=O)Nc2cccc3cnn(C)c23)cn1 [Example I-90, 6-(1-Methyl-1H-Imidazol-5-yl)-N-(1-Methyl-1H-Indazol-7-yl)Pyridine-3-Sulfonamide]
- pIC50 (MALT1): < 5.60
- pIC50 (NF-kB; [1]): 6.00 to 6.40

Structure (SMILES): Cc1ccncc1-c1ccc(S(=O)(=O)Nc2cccc3cnn(C)c23)cn1 [Example I-123, 4′-Methyl-N-(1-Methyl-1H-Indazol-7-yl)-2,3′-Bipyridine-5-Sulfonamide]
- pIC50 (MALT1): < 5.60
- pIC50 (NF-kB; [1]): 6.00 to 6.40

Structure (SMILES): Cn1ncc2cccc(NS(=O)(=O)c3ccc(-c4ccc(O)nc4)nc3)c21 [Example I-136, 6′-Hydroxy-N-(1-Methyl-1H-Indazol-7-yl)-[2,3′-Bipyridine]-5-Sulfonamide]
- pIC50 (MALT1): < 5.60
- pIC50 (NF-kB; [1]): < 5.60

Structure (SMILES): COc1ncc2cnn(C)c2c1NS(=O)(=O)c1ccc(-n2cc(C(C)C)cn2)nc1 [Example I-194, 6-(4-isopropyl-1H-pyrazol-1-yl)-N-(6-methoxy-1-methyl-1H-pyrazolo[4,3-c]pyridin-7-yl)pyridine-3-sulfonamide]
- pIC50 (MALT1): > 6.40
- pIC50 (NF-kB; [1]): > 6.40

Structure (SMILES): COc1ccc2cnn(C)c2c1N(CCN(C)C)S(=O)(=O)c1ccc(-n2cc(C(F)(F)F)cn2)nc1 [Example I-163, N-(2-(Dimethylamino)Ethyl)-N-(6-Methoxy-1-Methyl-1H-Indazol-7-yl)-6-(4-(Trifluoromethyl)-1H-Pyrazol-1-yl)Pyridine-3-Sulfonamide]
- pIC50 (MALT1): > 6.40
- pIC50 (NF-kB): 5.60 to 6.00

Structure (SMILES): C=Cn1ncc2cccc(NS(=O)(=O)c3ccc(-n4cc(C(F)(F)F)cn4)nc3)c21 [Example I-296, 6-(4-(trifluoromethyl)-1H-pyrazol-1-yl)-N-(1-vinyl-1H-indazol-7-yl)pyridine-3-sulfonamide]
- pIC50 (MALT1): 5.60 to 6.00
- pIC50 (NF-kB; [1]): > 6.40

Structure (SMILES): COc1ccc2cnn(C)c2c1NS(=O)(=O)c1ccc(-c2cnn(C)c2)nc1 [Example I-20, N-(6-Methoxy-1-Methylindazol-7-yl)-6-(1-Methylpyrazol-4-yl)Pyridine-3-Sulfonamide]
- pIC50 (MALT1): 5.60 to 6.00
- pIC50 (NF-kB; [1]): 6.00 to 6.40

Structure (SMILES): [2H]C([2H])([2H])c1ccc2cnn(C)c2c1NS(=O)(=O)c1ccc(-n2cc(C(F)(F)F)cn2)nc1 [Example I-69, N-(1-Methyl-6-(Methyl-Ds)-1H-Indazol-7-yl)-6-(4-(Trifluoromethyl)-1H-Pyrazol-1-yl)Pyridine-3-Sulfonamide]
- pIC50 (MALT1): > 6.40
- pIC50 (NF-kB; [1]): > 6.40

Structure (SMILES): COc1ncc2cnn(C)c2c1NS(=O)(=O)c1ccc(-c2cnn3c2OCCC3)nc1 [Example I-299]
- pIC50 (MALT1): < 5.60
- pIC50 (NF-kB; [1]): < 5.60

Structure (SMILES): Cn1ncc2cccc(NS(=O)(=O)c3ccc(-c4cnn5c4OCCC5)nc3)c21 [Example I-302, N-(1-methylindazol-7-yl)-6-{5H,6H,7H-pyrazolo[3,2-b][1,3]oxazin-3-yl}pyridine-3-sulfonamide]
- pIC50 (MALT1): < 5.60
- pIC50 (NF-kB; [1]): > 6.40

Structure (SMILES): [2H]C([2H])([2H])Oc1ccc2cnn(C)c2c1NS(=O)(=O)c1ccc(-n2cc(C(F)(F)F)cn2)nc1 [Example I-68, N-(6-(Methoxy-D3)-1-Methyl-1H-Indazol-7-yl)-6-(4-(Trifluoromethyl)-1H-Pyrazol-1-yl)Pyridine-3-Sulfonamide]
- pIC50 (MALT1): > 6.40
- pIC50 (NF-kB; [1]): > 6.40

Structure (SMILES): COc1ccc2cnn(C)c2c1NS(=O)(=O)c1ccc(CO)nc1 [Example I-177, 6-(Hydroxymethyl)-N-(6-Methoxy-1-Methyl-1H-Indazol-7-yl)Pyridine-3-Sulfonamide]
- pIC50 (MALT1): < 5.60
- pIC50 (NF-kB; [1]): < 5.60

Structure (SMILES): COc1ccc2cnn(C)c2c1NS(=O)(=O)c1ccc(-n2ncc(CO)c2C)nc1 [Example I-242, 6-[4-(hydroxymethyl)-5-methylpyrazol-1-yl]-N-(6-methoxy-1-methylindazol-7-yl)pyridine-3-sulfonamide]
- pIC50 (MALT1): 6.00 to 6.40
- pIC50 (NF-kB; [1]): > 6.40

Structure (SMILES): COc1ncc2cnn(C)c2c1NS(=O)(=O)c1ccc(-c2cc(C(F)F)n[nH]2)nc1 [Example I-204, 6-(3-(Difluoromethyl)-1H-Pyrazol-5-yl)-N-(6-Methoxy-1-Methyl-1H-Pyrazolo[4,3-C]Pyridin-7-yl)Pyridine-3-Sulfonamide]
- pIC50 (MALT1): > 6.40
- pIC50 (NF-kB; [1]): 5.60 to 6.00

Structure (SMILES): COc1ccc2cnn(C)c2c1NS(=O)(=O)c1ccc(-c2nc(C)nn2C)nc1 [Example I-239, 6-(1,3-dimethyl-1H-1,2,4-triazol-5-yl)-N-(6-methoxy-1-methyl-1H-indazol-7-yl)pyridine-3-sulfonamide]
- pIC50 (MALT1): 5.60 to 6.00
- pIC50 (NF-kB; [1]): < 5.60

Structure (SMILES): COc1ncc2cnn(C)c2c1NS(=O)(=O)c1ccc(-c2nn(C)c3c2COCC3)nc1 [Example I-305]
- pIC50 (MALT1): < 5.60
- pIC50 (NF-kB; [1]): 6.00 to 6.40

Structure (SMILES): COc1ncc2cnn(C)c2c1NS(=O)(=O)c1ccc(N2C[C@@](O)(C(F)(F)F)CC2=O)nc1 [Example I-235, (R)-6-(4-hydroxy-2-oxo-4-(trifluoromethyl)pyrrolidin-1-yl)-N-(6-methoxy-1-methyl-1H-pyrazolo[4,3-c]pyridin-7-yl)pyridine-3-sulfonamide]
- pIC50 (MALT1): > 6.40
- pIC50 (NF-kB; [1]): 6.00 to 6.40

Structure (SMILES): Cc1ccc2cnn(C)c2c1NS(=O)(=O)c1ccc(-n2cc(C(F)(F)F)cn2)nc1 [Example I-31, N-(1,6-Dimethyl-1H-Indazol-7-yl)-6-(4-(Trifluoromethyl)-1H-Pyrazol-1-yl)Pyridine-3-Sulfonamide]
- pIC50 (MALT1): > 6.40
- pIC50 (NF-kB; [1]): > 6.40

Structure (SMILES): Cc1cncc(-c2ccc(S(=O)(=O)Nc3cccc4cnn(C)c34)cn2)c1 [Example I-131, 5′-methyl-N-(1-methylindazol-7-yl)-[2,3′-bipyridine]-5-sulfonamide]
- pIC50 (MALT1): < 5.60
- pIC50 (NF-kB; [1]): > 6.40

Structure (SMILES): Cn1ncc2cccc(NS(=O)(=O)c3ccc(-c4ccc(Cl)nc4)nc3)c21 [Example I-219, 6′-Chloro-N-(1-Methyl-1H-Indazol-7-yl)-[2,3′-Bipyridine]-5-Sulfonamide]
- pIC50 (MALT1): < 5.60
- pIC50 (NF-kB; [1]): > 6.40

Structure (SMILES): CN1CCn2ncc(-c3ccc(S(=O)(=O)Nc4cccc5cnn(C)c45)cn3)c2C1 [Example I-314, 6-{5-methyl-4H,6H,7H-pyrazolo[1,5-a]pyrazin-3-yl}-N-(1-methylindazol-7-yl)pyridine-3-sulfonamide]
- pIC50 (MALT1): < 5.60
- pIC50 (NF-kB; [1]): 5.60 to 6.00

Structure (SMILES): COc1ncc2cnn(C)c2c1NS(=O)(=O)c1ccc(-c2cc(C(F)(F)F)n[nH]2)nc1 [Example I-200, N-(6-Methoxy-1-Methyl-1H-Pyrazolo[4,3-C]Pyridin-7-yl)-6-(3-(Trifluoromethyl)-1H-Pyrazol-5-yl)Pyridine-3-Sulfonamide]
- pIC50 (MALT1): > 6.40
- pIC50 (NF-kB; [1]): > 6.40

Structure (SMILES): COc1ccc2cnn(C)c2c1NS(=O)(=O)c1ccc(-c2nn(C)c3c2COCC3)nc1 [Example I-307]
- pIC50 (MALT1): < 5.60
- pIC50 (NF-kB; [1]): 6.00 to 6.40

Structure (SMILES): CCc1ccc2cnn(C)c2c1N(C)S(=O)(=O)c1ccc(-n2cc(C(F)(F)F)cn2)nc1 [Example I-6]
- pIC50 (MALT1): > 6.40
- pIC50 (NF-kB; [1]): > 6.40

Structure (SMILES): COc1ccc2cnn(C)c2c1NS(=O)(=O)c1ccc(-c2cnn3c2OCCC3)nc1 [Example I-303, 6-(6,7-dihydro-5H-pyrazolo[5,1-b][1,3]oxazin-3-yl)-N-(6-methoxy-1-methyl-1H-indazol-7-yl)pyridine-3-sulfonamide]
- pIC50 (MALT1): < 5.60
- pIC50 (NF-kB; [1]): 6.00 to 6.40

Structure (SMILES): Cn1cc(-c2ccc(S(=O)(=O)Nc3cccc4cnn(C)c34)cn2)cn1 [Example I-107, N-(1-Methyl-1H-Indazol-7-yl)-6-(1-Methyl-1H-Pyrazol-4-yl)Pyridine-3-Sulfonamide]
- pIC50 (MALT1): < 5.60
- pIC50 (NF-kB; [1]): > 6.40

Structure (SMILES): Cc1nn(C)cc1-c1ccc(S(=O)(=O)Nc2cccc3cnn(C)c23)cn1 [Example I-87, 6-(1,3-Dimethyl-1H-Pyrazol-4-yl)-N-(1-Methyl-1H-Indazol-7-yl)Pyridine-3-Sulfonamide]
- pIC50 (MALT1): < 5.60
- pIC50 (NF-kB; [1]): > 6.40

Structure (SMILES): COc1ncc2cnn(C)c2c1NS(=O)(=O)c1ccc(-c2cnn3c2COCC3)nc1 [Example I-301]
- pIC50 (MALT1): 5.60 to 6.00
- pIC50 (NF-kB; [1]): 5.60 to 6.00
